The target in one assay is D(2) dopamine receptor (Homo sapiens, UniProt P14416). Put plainly: Binding affinity to human dopamine D2 receptor.
The target of assay [1] is T1, Alpha-1D adrenergic receptor (Homo sapiens, UniProt P25100).
T1 sequence (P25100 whole entry): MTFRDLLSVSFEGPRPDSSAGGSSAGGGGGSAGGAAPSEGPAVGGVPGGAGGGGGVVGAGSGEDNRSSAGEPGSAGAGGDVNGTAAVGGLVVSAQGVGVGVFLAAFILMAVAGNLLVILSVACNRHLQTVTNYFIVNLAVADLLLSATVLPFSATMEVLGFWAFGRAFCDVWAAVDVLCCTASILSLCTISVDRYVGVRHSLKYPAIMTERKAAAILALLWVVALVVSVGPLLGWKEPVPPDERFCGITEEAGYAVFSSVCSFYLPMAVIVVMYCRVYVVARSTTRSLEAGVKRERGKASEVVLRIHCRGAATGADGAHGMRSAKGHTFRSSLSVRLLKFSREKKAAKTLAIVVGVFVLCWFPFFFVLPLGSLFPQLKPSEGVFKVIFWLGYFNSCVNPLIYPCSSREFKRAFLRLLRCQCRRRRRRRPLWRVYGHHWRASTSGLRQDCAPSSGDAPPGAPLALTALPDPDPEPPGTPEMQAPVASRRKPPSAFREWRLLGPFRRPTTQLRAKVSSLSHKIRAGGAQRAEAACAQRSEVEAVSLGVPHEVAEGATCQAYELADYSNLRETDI
Description: Binding affinity to human cloned adrenergic Alpha-1D receptor.

Assay [2] concerns the target T2, Alpha-1B adrenergic receptor (Homo sapiens, UniProt P35368).
T2 sequence (P35368 whole entry): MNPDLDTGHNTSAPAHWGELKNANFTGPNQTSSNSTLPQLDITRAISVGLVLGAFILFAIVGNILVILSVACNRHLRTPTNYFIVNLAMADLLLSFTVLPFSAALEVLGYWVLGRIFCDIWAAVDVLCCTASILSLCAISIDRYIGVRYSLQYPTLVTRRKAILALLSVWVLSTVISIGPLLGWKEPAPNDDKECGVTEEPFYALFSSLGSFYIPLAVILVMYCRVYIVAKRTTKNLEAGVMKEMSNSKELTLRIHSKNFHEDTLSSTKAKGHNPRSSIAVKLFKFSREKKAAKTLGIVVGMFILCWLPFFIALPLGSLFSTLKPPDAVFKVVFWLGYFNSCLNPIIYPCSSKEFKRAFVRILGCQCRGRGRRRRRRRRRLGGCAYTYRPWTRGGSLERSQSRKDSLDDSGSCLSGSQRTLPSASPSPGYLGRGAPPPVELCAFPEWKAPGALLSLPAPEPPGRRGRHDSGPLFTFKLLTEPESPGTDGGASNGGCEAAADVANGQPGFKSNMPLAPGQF
Put plainly: Binding affinity to human cloned adrenergic alpha-1B receptor.

Assay [3] has as its target T3, Alpha-1A adrenergic receptor (Homo sapiens, UniProt P35348).
T3 sequence (P35348 whole entry): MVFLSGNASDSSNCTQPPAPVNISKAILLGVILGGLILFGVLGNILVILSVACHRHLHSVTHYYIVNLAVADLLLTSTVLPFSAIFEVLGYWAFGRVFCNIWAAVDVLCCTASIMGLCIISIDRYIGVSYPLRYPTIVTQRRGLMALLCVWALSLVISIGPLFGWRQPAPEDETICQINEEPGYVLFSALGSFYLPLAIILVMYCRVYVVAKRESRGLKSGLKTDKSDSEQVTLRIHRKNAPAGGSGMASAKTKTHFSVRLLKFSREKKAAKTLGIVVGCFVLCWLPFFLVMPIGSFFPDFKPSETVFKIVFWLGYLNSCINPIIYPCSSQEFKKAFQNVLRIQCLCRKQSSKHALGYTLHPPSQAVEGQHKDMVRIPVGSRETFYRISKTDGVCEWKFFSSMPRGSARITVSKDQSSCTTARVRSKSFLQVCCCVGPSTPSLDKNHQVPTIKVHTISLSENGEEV
Put plainly: Binding affinity to human cloned adrenergic alpha-1A receptor.

Chain of D(2) dopamine receptor (P14416 whole entry): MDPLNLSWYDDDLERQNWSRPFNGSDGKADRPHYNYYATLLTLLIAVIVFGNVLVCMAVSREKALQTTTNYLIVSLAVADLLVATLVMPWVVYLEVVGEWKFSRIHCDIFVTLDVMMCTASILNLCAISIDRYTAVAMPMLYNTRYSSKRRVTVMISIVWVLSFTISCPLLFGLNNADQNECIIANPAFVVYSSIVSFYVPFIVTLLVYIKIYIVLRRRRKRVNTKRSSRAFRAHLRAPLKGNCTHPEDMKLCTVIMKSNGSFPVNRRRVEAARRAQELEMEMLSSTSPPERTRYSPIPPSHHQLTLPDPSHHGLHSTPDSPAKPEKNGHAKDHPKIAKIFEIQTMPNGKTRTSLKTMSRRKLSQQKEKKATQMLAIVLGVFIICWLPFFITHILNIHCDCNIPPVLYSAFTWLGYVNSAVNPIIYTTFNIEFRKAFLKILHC

One may read the Ki as a measure of affinity in units of concentration, obtained from inhibition or displacement. Regarding `CC(C)Oc1ccccc1N1CCN([C@H]2CC[C@@H](NS(=O)(=O)c3ccccc3[N+](=O)[O-])CC2)CC1`, on D(2) dopamine receptor, the Ki was 51 nM. In the case of `CC(C)Oc1ccccc1N1CCN([C@H]2CC[C@H](NS(=O)(=O)c3ccccc3[N+](=O)[O-])CC2)CC1`, the Ki on D(2) dopamine receptor turned out to be 86 nM. The molecule `COc1ccncc1S(=O)(=O)N[C@H]1CC[C@@H](N2CCN(c3ccccc3OC(C)C)CC2)CC1` displayed a Ki at D(2) dopamine receptor of 92 nM.

Regarding `CC(C)Oc1ccccc1N1CCN([C@H]2CC[C@@H](NS(=O)(=O)c3cnc(Cl)c(Br)c3)CC2)CC1`, at D(2) dopamine receptor, affinity was put at a Ki of 61 nM.

Regarding `CC(C)Oc1ccccc1N1CCN([C@H]2CC[C@@H](NS(=O)(=O)c3cccc(F)c3)CC2)CC1`, at D(2) dopamine receptor, the Ki was found to be 74 nM.

For `CC(C)Oc1ccccc1N1CCN([C@H]2CC[C@H](NS(=O)(=O)c3cccc(F)c3)CC2)CC1`, the Ki at D(2) dopamine receptor is 64 nM.

`CC(C)Oc1ccccc1N1CCN([C@H]2CC[C@@H](NS(=O)(=O)c3cccc(Cl)c3F)CC2)CC1`: the results for the Ki (in assay [1]; at D(2) dopamine receptor; in assay [2]) were 6.2 nM, 198 nM and 120 nM, respectively. The molecule `CC(C)Oc1ccccc1N1CCN([C@H]2CC[C@@H](NS(=O)(=O)c3ccc(Cl)cc3F)CC2)CC1` had a Ki on D(2) dopamine receptor of 130 nM. Still for that read-out and setting: to `CC(C)Oc1ccccc1N1CCN([C@H]2CC[C@H](NS(=O)(=O)c3cccc(C(F)(F)F)c3)CC2)CC1` belongs 39 nM; to `CC(C)Oc1ccccc1N1CCN([C@H]2CC[C@H](NS(=O)(=O)c3ccc(Cl)cc3F)CC2)CC1`, 42 nM. Turning to `CC(C)Oc1ccccc1N1CCN([C@H]2CC[C@@H](NS(=O)(=O)c3cccc(C(F)(F)F)c3)CC2)CC1`, the Ki on D(2) dopamine receptor stood at 118 nM. Same read-out and setting: to `COc1ccc(C)cc1S(=O)(=O)N[C@H]1CC[C@H](N2CCN(c3ccccc3OC(C)C)CC2)CC1` belongs 50 nM; to `CC(C)Oc1ccccc1N1CCN([C@H]2CC[C@H](NS(=O)(=O)c3cnc(Cl)c(Br)c3)CC2)CC1`, 80 nM; to `COc1ccc(F)cc1S(=O)(=O)N[C@H]1CC[C@@H](N2CCN(c3ccccc3OC(C)C)CC2)CC1`, 173 nM. On the same count and under the same terms, to `COc1ccc(Br)cc1S(=O)(=O)N[C@H]1CC[C@@H](N2CCN(c3ccccc3OC(C)C)CC2)CC1` belongs 37 nM. Still for that read-out and setting: to `COc1ccc(OC)c(S(=O)(=O)N[C@H]2CC[C@H](N3CCN(c4ccccc4OC(C)C)CC3)CC2)c1` belongs 62 nM. As to `COc1ccc(C(F)(F)F)cc1S(=O)(=O)N[C@H]1CC[C@@H](N2CCN(c3ccccc3OC(C)C)CC2)CC1`, the Ki at D(2) dopamine receptor worked out at 194 nM.

Regarding `COc1ccc(C(F)(F)F)cc1S(=O)(=O)N[C@H]1CC[C@H](N2CCN(c3ccccc3OC(C)C)CC2)CC1`, the Ki in assay [1] came out at 15 nM; at D(2) dopamine receptor it was 1.9 nM; in assay [3] it was 25 nM.

For the molecule `COc1ccc([N+](=O)[O-])cc1S(=O)(=O)N[C@H]1CC[C@H](N2CCN(c3ccccc3OC(C)C)CC2)CC1`, the affinity on D(2) dopamine receptor corresponds to a Ki of 18 nM.

On to `Cc1ccc(S(=O)(=O)N[C@H]2CC[C@@H](N3CCN(c4ccccc4OC(C)C)CC3)CC2)cc1Cl`, for which the Ki was determined as 60 nM on D(2) dopamine receptor and 11 nM in assay [3]. Regarding `COc1ccc(Cl)cc1S(=O)(=O)N[C@H]1CC[C@H](N2CCN(c3ccccc3OC(C)C)CC2)CC1`, on D(2) dopamine receptor, the Ki came out at 78 nM. `Cc1ccc(S(=O)(=O)N[C@H]2CC[C@H](N3CCN(c4ccccc4OC(C)C)CC3)CC2)cc1Cl` came in with a Ki at D(2) dopamine receptor of 52 nM. Same read-out and setting: to `CC(C)Oc1ccccc1N1CCN([C@H]2CC[C@@H](NS(=O)(=O)Cc3ccccc3)CC2)CC1` belongs 24 nM. The same measure, in the same setting: to `CC(C)Oc1ccccc1N1CCN([C@H]2CC[C@H](NS(=O)(=O)Cc3ccccc3)CC2)CC1` belongs 71 nM; to `CC(C)Oc1ccccc1N1CCN([C@H]2CC[C@H](NS(=O)(=O)c3ccccc3)CC2)CC1`, 34 nM; to `CC(C)Oc1ccccc1N1CCN([C@H]2CC[C@@H](NS(=O)(=O)c3ccccc3C#N)CC2)CC1`, 55 nM.

Regarding `CC(C)Oc1ccccc1N1CCN([C@H]2CC[C@H](NS(=O)(=O)c3ccccc3C#N)CC2)CC1`, the Ki on D(2) dopamine receptor is 2.4 nM. The molecule `CC(C)Oc1ccccc1N1CCN([C@H]2CC[C@H](NS(=O)(=O)c3ccccc3F)CC2)CC1` yielded a Ki on D(2) dopamine receptor of 31 nM. On the same count and under the same terms, to `CC(C)Oc1ccccc1N1CCN([C@H]2CC[C@@H](NS(=O)(=O)c3cccnc3)CC2)CC1` belongs 15 nM; to `CC(C)Oc1ccccc1N1CCN([C@H]2CC[C@@H](NS(=O)(=O)c3ccc(F)cc3)CC2)CC1`, 69 nM. `CC(C)Oc1ccccc1N1CCN([C@H]2CC[C@@H](NS(=O)(=O)c3ccc(S(C)(=O)=O)cc3)CC2)CC1`: the affinity at D(2) dopamine receptor corresponds to a Ki of 122 nM. Same read-out and setting: to `CC(C)Oc1ccccc1N1CCN([C@H]2CC[C@H](NS(=O)(=O)c3ccc(S(C)(=O)=O)cc3)CC2)CC1` belongs 14 nM; to `COc1ccc(S(=O)(=O)N[C@H]2CC[C@H](N3CCN(c4ccccc4OC(C)C)CC3)CC2)cc1OC`, 62 nM.

Take `CC(C)Oc1ccccc1N1CCN([C@H]2CC[C@@H](NS(=O)(=O)c3ccc(OC(F)(F)F)cc3)CC2)CC1`: the Ki on D(2) dopamine receptor was 430 nM; in assay [3] it was 17 nM. For `COc1ccc(OC)c(S(=O)(=O)N[C@H]2CC[C@@H](N3CCN(c4ccccc4OC(C)C)CC3)CC2)c1`, the Ki in assay [1] is 5.1 nM; on D(2) dopamine receptor, 81 nM; in assay [2], 153 nM. For `CC(C)Oc1ccccc1N1CCN([C@H]2CC[C@H](NS(=O)(=O)c3cccnc3)CC2)CC1`, at D(2) dopamine receptor, the inhibitory constant (Ki) came to 55 nM. Still for that read-out and setting: to `COc1ccncc1S(=O)(=O)N[C@H]1CC[C@H](N2CCN(c3ccccc3OC(C)C)CC2)CC1` belongs 43 nM; to `CC(C)Oc1ccccc1N1CCN([C@H]2CC[C@@H](NS(=O)(=O)c3ccc(Cl)cc3Cl)CC2)CC1`, 42 nM; to `CC(C)Oc1ccccc1N1CCN([C@H]2CC[C@@H](NS(=O)(=O)c3ccccc3)CC2)CC1`, 191 nM. Consider `COc1ccc(F)cc1S(=O)(=O)N[C@H]1CC[C@H](N2CCN(c3ccccc3OC(C)C)CC2)CC1`, for which the inhibitory constant (Ki) on D(2) dopamine receptor is 139 nM. Still for that read-out and setting: to `CC(C)Oc1ccccc1N1CCN([C@H]2CC[C@H](NS(=O)(=O)c3ccc(OC(F)(F)F)cc3)CC2)CC1` belongs 58 nM. The same measure, in the same setting: to `CC(C)Oc1ccccc1N1CCN([C@H]2CC[C@H](NS(=O)(=O)c3ccc(Cl)cc3Cl)CC2)CC1` belongs 76 nM; to `CC(C)Oc1ccccc1N1CCN([C@H]2CC[C@H](NS(=O)(=O)c3cccc(Cl)c3F)CC2)CC1`, 271 nM. For the molecule `CC(C)Oc1ccccc1N1CCN([C@H]2CC[C@@H](NS(=O)(=O)c3ccccc3F)CC2)CC1`, the Ki in assay [1] is 2.4 nM; on D(2) dopamine receptor, 149 nM. In turn, `CC(C)Oc1ccccc1N1CCN([C@H]2CC[C@H](NS(=O)(=O)c3ccc(F)cc3)CC2)CC1` showed a Ki on D(2) dopamine receptor of 27 nM.

`COc1ccc(Br)cc1S(=O)(=O)N[C@H]1CC[C@H](N2CCN(c3ccccc3OC(C)C)CC2)CC1` had a Ki on D(2) dopamine receptor of 36 nM. Still for that read-out and setting: to `COc1ccc([N+](=O)[O-])cc1S(=O)(=O)N[C@H]1CC[C@@H](N2CCN(c3ccccc3OC(C)C)CC2)CC1` belongs 45 nM. In the case of `COc1ccc(Cl)cc1S(=O)(=O)N[C@H]1CC[C@@H](N2CCN(c3ccccc3OC(C)C)CC2)CC1` (stereo in doubt; form 1), the values for the Ki (on D(2) dopamine receptor; in assay [3]) were 101 nM and 1 nM, respectively. Consider `COc1ccc(S(=O)(=O)N[C@H]2CC[C@@H](N3CCN(c4ccccc4OC(C)C)CC3)CC2)cc1OC` (stereo in doubt; form 1), for which the Ki on D(2) dopamine receptor came out at 94 nM. As to `COc1ccc(S(=O)(=O)N[C@H]2CC[C@@H](N3CCN(c4ccccc4OC(C)C)CC3)CC2)cc1OC` (stereo in doubt; form 2), the values for the Ki (in assay [1]; on D(2) dopamine receptor; in assay [2]) were 19 nM, 810 nM and 112 nM, respectively. Take `CCOc1ccccc1OCCN[C@H](C)Cc1ccc(OC)c(S(N)(=O)=O)c1` [TAMSULOSIN]: the Ki in assay [1] worked out at 0.2 nM; in assay [2], 2 nM.
